Experimental data published in patent publication US9211310B2, “Use of a Chinese medicine composition in preparing medicaments for treating secondary prevention of myocardial infarction” (TASLY PHARMACEUTICAL GROUP CO., LTD, priority 2010, dated 2015).

System: patients after acute myocardial infarction
Assay: TCM symptom score, total and single (chest pain, chest tightness, short breath, fatigue, palpitation, spontaneous perspiration, pale complexion), same clinical trial
Assay type: in vivo, human
Parameters: total score of TCM symptom, Mean / total score of TCM symptom, Min / total score of TCM symptom, Max / total score of TCM symptom, Md / change of total score of TCM symptom, Mean / change of total score of TCM symptom, Max / change of total score of TCM symptom, Md: scale not given here
Details: PP
Source text: 3508 patients who were in accordance with the diagnostic standards of AMI for 28 days to 2 years and differentiated as Qi deficiency and blood stagnation syndrome by TCM were studied. 0.5 g Chinese medicine composition prepared by the method of EXAMPLE 1 (Coded as QSYQ) was administrated half an hour after meal, 3 times per day.
They included the overall survival time, angina pectoris score, TCM symptom score and life quality score, where angina pectoris score, TCM symptom score and life quality score were evaluated at randomization, in 1st, 3rd, 6th, 9th, 12th month after treatment and 18th month after follow-up.
The analysis method referred to the angina pectoris score.

[1] = 9 months after treatment-baseline
[2] = 12 months after treatment-baseline

`CC(=O)Oc1ccccc1C(=O)O` [Control group, aspirine] was tested, and the “change of spontaneous perspiration −2, percent of patients” value [1] was “(0.43%)”, the “change of spontaneous perspiration −3, number of patients” value [1] was 0 and the “change of spontaneous perspiration −3, percent of patients” value [1] was “(0.00%)”. The “change of total score of TCM symptom, Max” value [1] was 15.00, the “change of total score of TCM symptom, Md” value [1] was −4.00 and the “change of total score of TCM symptom, Mean” value [1] was −5.04. For the same molecule, the “change of short breath 0, number of patients” value (12 months after treatment) was 743, the “distribution of total score of TCM symptom: Medium, number of patients” value (12 months after treatment) was 229 and the “distribution of total score of TCM symptom: Medium, percentage of patients” value (12 months after treatment) was “(16.33%)”. The “distribution of total score of TCM symptom: Mild, number of patients” value (12 months after treatment) was 1172, the “distribution of total score of TCM symptom: Mild, percentage of patients” value (12 months after treatment) was “(83.59%)” and the “distribution of total score of TCM symptom: Severe, number of patients” value (12 months after treatment) was 1. For the same molecule, the “distribution of total score of TCM symptom: Severe, percentage of patients” value (12 months after treatment) was “(0.07%)”, the “fatigue score 0, % of patients” value (12 months after treatment) was “(39.06%)” and the “fatigue score 0, number of patients” value (12 months after treatment) was 548. For the same molecule, the “fatigue score 2, % of patients” value (12 months after treatment) was “(58.16%)”, the “fatigue score 2, number of patients” value (12 months after treatment) was 816 and the “fatigue score 4, % of patients” value (12 months after treatment) was “(2.64%)”. The “fatigue score 4, number of patients” value (12 months after treatment) was 37, the “fatigue score 6, % of patients” value (12 months after treatment) was “(0.14%)” and the “fatigue score 6, number of patients” value (12 months after treatment) was 2. The “pale complexion score 0, number of patients” value (12 months after treatment) was 870, the “pale complexion score 0, percent of patients” value (12 months after treatment) was “(62.01%)” and the “pale complexion score 1, number of patients” value (12 months after treatment) was 463. The “pale complexion score 1, percent of patients” value (12 months after treatment) was “(33.00%)”, the “pale complexion score 2, number of patients” value (12 months after treatment) was 63 and the “pale complexion score 2, percent of patients” value (12 months after treatment) was “(4.49%)”. For the same molecule, the “pale complexion score 3, number of patients” value (12 months after treatment) was 7, the “pale complexion score 3, percent of patients” value (12 months after treatment) was “(0.50%)” and the “palpitation score 0, number of patients” value (12 months after treatment) was 576. For the same molecule, the “palpitation score 0, percent of patients” value (12 months after treatment) was “(41.05%)”, the “palpitation score 2, number of patients” value (12 months after treatment) was 745 and the “palpitation score 2, percent of patients” value (12 months after treatment) was “(53.10%)”. The “palpitation score 4, number of patients” value (12 months after treatment) was 78, the “palpitation score 4, percent of patients” value (12 months after treatment) was “(5.56%)” and the “palpitation score 6, number of patients” value (12 months after treatment) was 4. The “palpitation score 6, percent of patients” value (12 months after treatment) was “(0.29%)”, the “short breath score 0, % of patients” value (12 months after treatment) was “(33.36%)” and the “short breath score 0, number of patients” value (12 months after treatment) was 468. The “short breath score 3, % of patients” value (12 months after treatment) was “(58.45%)”, the “short breath score 3, number of patients” value (12 months after treatment) was 820 and the “short breath score 6, % of patients” value (12 months after treatment) was “(8.20%)”. The “short breath score 6, number of patients” value (12 months after treatment) was 115, the “short breath score 9, % of patients” value (12 months after treatment) was “(0.00%)” and the “short breath score 9, number of patients” value (12 months after treatment) was 0. For the same molecule, the “spontaneous perspiration score 0, number of patients” value (12 months after treatment) was 730, the “spontaneous perspiration score 0, percent of patients” value (12 months after treatment) was “(52.03%)” and the “spontaneous perspiration score 1, number of patients” value (12 months after treatment) was 640. For the same molecule, the “spontaneous perspiration score 1, percent of patients” value (12 months after treatment) was “(45.62%)”, the “spontaneous perspiration score 2, number of patients” value (12 months after treatment) was 31 and the “spontaneous perspiration score 2, percent of patients” value (12 months after treatment) was “(2.21%)”. For the same molecule, the “spontaneous perspiration score 3, number of patients” value (12 months after treatment) was 2, the “spontaneous perspiration score 3, percent of patients” value (12 months after treatment) was “(0.14%)” and the “total score of TCM symptom, Max” value (12 months after treatment) was 28.00. The “total score of TCM symptom, Md” value (12 months after treatment) was 7.00, the “total score of TCM symptom, Mean” value (12 months after treatment) was 7.81 and the “total score of TCM symptom, Min” value (12 months after treatment) was 0.00. The “change of fatigue 0, % of patients” value [2] was “(44.10%)”, the “change of fatigue 0, number of patients” value [2] was 617 and the “change of fatigue 2, % of patients” value [2] was “(38.03%)”. The “change of fatigue 2, number of patients” value [2] was 532, the “change of fatigue 4, % of patients” value [2] was “(10.51%)” and the “change of fatigue 4, number of patients” value [2] was 147. The “change of fatigue 6, % of patients” value [2] was “(1.64%)”, the “change of fatigue 6, number of patients” value [2] was 23 and the “change of fatigue −2, % of patients” value [2] was “(5.43%)”. For the same molecule, the “change of fatigue −2, number of patients” value [2] was 76, the “change of fatigue −4, % of patients” value [2] was “(0.29%)” and the “change of fatigue −4, number of patients” value [2] was 4. For the same molecule, the “change of pale complexion 0, number of patients” value [2] was 967, the “change of pale complexion 0, percent of patients” value [2] was “(69.22%)” and the “change of pale complexion 1, number of patients” value [2] was 393. For the same molecule, the “change of pale complexion 1, percent of patients” value [2] was “(28.13%)”, the “change of pale complexion −1, number of patients” value [2] was 37 and the “change of pale complexion −1, percent of patients” value [2] was “(2.65%)”. The “change of palpitation 0, number of patients” value [2] was 679, the “change of palpitation 0, percent of patients” value [2] was “(48.53%)” and the “change of palpitation 1, number of patients” value [2] was 536. The “change of palpitation 1, percent of patients” value [2] was “(38.31%)”, the “change of palpitation 2, number of patients” value [2] was 97 and the “change of palpitation 2, percent of patients” value [2] was “(6.93%)”. For the same molecule, the “change of palpitation 3, number of patients” value [2] was 6, the “change of palpitation 3, percent of patients” value [2] was “(0.43%)” and the “change of palpitation −1, number of patients” value [2] was 78. For the same molecule, the “change of palpitation −1, percent of patients” value [2] was “(5.58%)”, the “change of palpitation −2, number of patients” value [2] was 3 and the “change of palpitation −2, percent of patients” value [2] was “(0.21%)”. The “change of spontaneous perspiration 0, number of patients” value [2] was 647, the “change of spontaneous perspiration 0, percent of patients” value [2] was “(46.28%)” and the “change of spontaneous perspiration 1, number of patients” value [2] was 483. The “change of spontaneous perspiration 1, percent of patients” value [2] was “(34.55%)”, the “change of spontaneous perspiration 2, number of patients” value [2] was 128 and the “change of spontaneous perspiration 2, percent of patients” value [2] was “(9.16%)”. For the same molecule, the “change of spontaneous perspiration 3, number of patients” value [2] was 29, the “change of spontaneous perspiration 3, percent of patients” value [2] was “(2.07%)” and the “change of spontaneous perspiration −1, number of patients” value [2] was 103. For the same molecule, the “change of spontaneous perspiration −1, percent of patients” value [2] was “(7.37%)”, the “change of spontaneous perspiration −2, number of patients” value [2] was 8 and the “change of spontaneous perspiration −2, percent of patients” value [2] was “(0.57%)”. The “change of total score of TCM symptom, Max” value [2] was 18.00, the “change of total score of TCM symptom, Md” value [2] was −5.00 and the “change of total score of TCM symptom, Mean” value [2] was −6.09. For the same molecule, the “change of total score of TCM symptom, Min” value [2] was −28.00, the “distribution of total score of TCM symptom: Medium, number of patients” value (Baseline) was 717 and the “distribution of total score of TCM symptom: Medium, percentage of patients” value (Baseline) was “(48.78%)”. For the same molecule, the “distribution of total score of TCM symptom: Mild, number of patients” value (Baseline) was 701, the “distribution of total score of TCM symptom: Mild, percentage of patients” value (Baseline) was “(47.69%)” and the “distribution of total score of TCM symptom: Severe, number of patients” value (Baseline) was 52. The “distribution of total score of TCM symptom: Severe, percentage of patients” value (Baseline) was “(3.54%)”, the “fatigue score 0, % of patients” value (Baseline) was “(18.22%)” and the “fatigue score 0, number of patients” value (Baseline) was 268. For the same molecule, the “fatigue score 2, % of patients” value (Baseline) was “(60.50%)”, the “fatigue score 2, number of patients” value (Baseline) was 890 and the “fatigue score 4, % of patients” value (Baseline) was “(17.74%)”. The “fatigue score 4, number of patients” value (Baseline) was 261, the “fatigue score 6, % of patients” value (Baseline) was “(3.54%)” and the “fatigue score 6, number of patients” value (Baseline) was 52. The “pale complexion score 0, number of patients” value (Baseline) was 494, the “pale complexion score 0, percent of patients” value (Baseline) was “(33.61%)” and the “pale complexion score 1, number of patients” value (Baseline) was 626. The “pale complexion score 1, percent of patients” value (Baseline) was “(42.59%)”, the “pale complexion score 2, number of patients” value (Baseline) was 293 and the “pale complexion score 2, percent of patients” value (Baseline) was “(19.93%)”. For the same molecule, the “pale complexion score 3, number of patients” value (Baseline) was 57.
